Source: US6511971B1, “Substituted perhalogenated phthalocyanines” (Brown University Research Foundation, priority 1998, dated 2003)

What was measured:
[1] = test system: EMT-6 tumor; assay: In vivo phototoxicity: photodynamic therapy in murine EMT-6 tumor model; set-up: species or system BALB/c mice; details: CRM emulsion
Method: The in vivo phototoxicity effects of ZnPcF64 on mouse tumors were determined by J. E. van Lier and colleagues at the University of Sherbrooke, Sherbrooke, QC, Canada, in accordance with published procedures. (Alleman et al. Int. J. Cancer, 72:289-294 (1997))
Experiments were performed on male BALB/c mice (16-22 g) and female Fisher CDF (F-344) rats (approx. 150 g) (Charles River, Montreal, Canada) following a protocol approved by the Canadian Council on Animal Care and an in-house ethics committee. Animals were allowed free access to water and food throughout the course of the experiments. Before tumor implantation, hair on the hind legs and back of the mice was removed by shaving and chemical depilating (Nair®, Whitehall, Mississauga, Canada). A tumor was implanted on each hind thigh by intradermal injection of 2 times 10^5 EMT-6 cells suspended in 0.05 ml Waymouth's growth medium. Biodistribution and photodynamic activity of ZnPcF64 were assayed using a murine EMT-6 tumor model (Allémann et al. Int. J. Cancer, 72:289-294 (1997)).
For PDT studies, mice were used 6-8 days after tumor inoculation (tumor size: 3-5 mm diameter, 2-3 mm thickness). At this time point, the tumor is sufficiently large to be measured, while therapeutic response can be observed without interference of spontaneous necrosis (Margaron et al. Anticancer Res. 16:613-620 (1996)). Animals were given an i.v. injection of ZnPcF64 formulated as a CRM emulsion at I or 2.5 μmol kg^−1 (0.2 ml), and one tumor was treated with red light 24-72 hr later, while the other tumor served as a control. Tumors were illuminated with an 8-mm diameter beam of 650-700 nm light ([…] for a total fluence of 100-400 J .cm^−2) generated by a 1,000 W Xenon lamp, equipped with a 10-cm circulating water filter and 2 glass filters (Corion LL650 and LS700, Holliston, Mass.). A positive tumor response (necrosis) was assigned to tumors which appeared macroscopically as flat and necrotic tissues within a few days after PDT (Allémann et al. Int. J Canc. 66:821-824 (1996)). […]

[2] = test system: EMT-6 mouse mammary tumor cells; assay: In vitro phototoxicity: cell photo-inactivation, MTT cell survival assay; assay type: cell-based; details: EMT-6 cells
Method: Chremophor emulsions were prepared and cell photo inactivation was determined by J. E. van Lier and colleagues at the University of Sherbrooke, Sherbrooke, QC, Canada, in accordance with published procedures. (Alleman et al. Int. J. Cancer, 72:289-294 (1997))
Chremophor EL (CRM) was obtained from BASF (Toronto, Canada). All solvents were of analytical grade, and all other chemicals were commercially available products. Zinc octakis (perfluoroisopropyl) perfluorophthalocyanine (“ZnPcF64”, 2.5 mg) was first dissolved in methanol (2 mL). 500 μL of Chremophor and 150 μL of propane diol were added to the solution. The methanol was evaporated by rotory evaporation at room temperature. The residue was diluted with PBS to 5 mL and sterile filtered (0.2 μm). […]
After incubation, cells were rinsed twice with PBS, refed with 100 μl Waymouth 15% FBS and exposed to red light. […] The fluence rate calculated over the absorbance peaks of the dyes (660-700 nm) was 10 mW cm^−2, for a total fluence of 0.6-36 J/cm^2. […] Plates were incubated overnight at 37° C., after which the absorbance was read at 595 nm by means of a microplate reader (BioRad, Mississauga, Canada). The average absorbance of the blank wells in which cells were omitted was subtracted from the readings of the other wells. The average absorbance of the control cells, which were incubated with dye-free Waymouth 1% FBS, represents 100% cell survival. […]

Zinc Octakis (perfluoroisopropyl) Perfluorophthalocyanine, Bis-acetone Solvate [ZnPcF64]
tumor response after PDT ([1]; 1 μmol/kg i.v., 650-700 nm light 24-72 hr later, EMT-6 tumor in mice): complete tumor necrosis | inflammation after PDT ([1]; 1 μmol/kg i.v., 650-700 nm light, EMT-6 tumor in mice): some inflammation | outcome of treated mice (lethality) ([1]; 2.5 μmol/kg i.v., tumor-bearing mice): died of shock | phototoxic effects ([2]; CRM emulsion at 1 and 3 μM, 1 or 24 hours incubation, red light 660-700 nm, 0.6-36 J/cm^2, any conditions): No phototoxic effects | Cell survival ([2]; highest dye concentrations and longest light exposure): 100%
